# Test results taken from the supplement of paper PMC11208160.
# Assay: recombinant UMI read abundance after kanamycin selection (control-corrected) (log10(CPM+1)); higher = more efficient recombination; extreme values may be limits of the assay; sequences stand for … in AGTGCAGAGAAAATCGGCCAGTTTTCTCTGCCTGCAGTCCGCATGCCGTGGGACCCCTTGGGTTCTAACCTGTTGCCTAGATTTATGCAGCGGACTGCCTTTCTCCCAAAGTGATAAACCGG…AGGTTGGTTTCACT; site = the 11-nt donor
# Procedure, shortened: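 In Escherichia coli, a pool of donor and donor-binding-loop pairs, each with a 12-nt UMI, was tested for the IS621 bridge recombinase. Plating was on IPTG (0.07 mM) plus kanamycin, or without selection, in two replicates. Recombinant UMIs were amplified by PCR across the donor–target junction and sequenced, and counts were reported as log10(CPM+1) after averaging and control-derived scaling.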
# 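Also: IS621 bridge recombinase in Escherichia coli cells against a fixed T5 target plasmid.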
row,Sequence,recombinant UMI read abundance (log10)
1,CTTATCTCATGGACCGGTTTTCCCGGTAATCCGTATTTGTA (site CTTATCTCTTA),2.27
2,CTTATCTCATGGACCGGTTTTCCCGGTAATCCGTATTTGTA (site CTTCTCTCTTA),0.475
3,CTTATCTCATGGACCGGTTTTCCCGGTAATCCGTATTTGTA (site CTTGTCTCTTA),0.606
4,CTTATCTCATGGACCGGTTTTCCCGGTAATCCGTATTTGTA (site CTTTTCTCTTA),0.00641
5,CTTCACACATGGACCGGTTTTCCCGGTAATCCGTATTTGTA (site CTTCACACTTA),0.61
6,CTTCCGCCATGGACCGGTTTTCCCGGTAATCCGTATTTGAG (site CTTCCGCCTCT),0.0295
7,CTTCGACCATGGACCGGTTTTCCCGGTAATCCGTATTTGCA (site CTTCGACCTTG),0
8,CTTCGAGCATGGACCGGTTTTCCCGGTAATCCGTATTTGTT (site CTTCGAGCTAA),1.59
9,CTTCGTCCATGGACCGGTTTTCCCGGTAATCCGTATTTGTT (site CTTCGTCCTAA),0.0114
10,CTTCTATCATGGACCGGTTTTCCCGGTAATCCGTATTTGTA (site CTTCTATCTTA),1.62
11,CTTCTATCATGGACCGGTTTTCCCGGTAATCCGTATTTGTA (site CTTCTCTCTTA),0.0109
12,CTTCTATCATGGACCGGTTTTCCCGGTAATCCGTATTTGTA (site CTTCTGTCTTA),0
13,CTTCTATCATGGACCGGTTTTCCCGGTAATCCGTATTTGTA (site CTTCTTTCTTA),0
14,CTTCTCACATGGACCGGTTTTCCCGGTAATCCGTATTTGTA (site CTTCTCACTTA),0.336
15,CTTCTCACATGGACCGGTTTTCCCGGTAATCCGTATTTGTA (site CTTCTCCCTTA),0.00809
16,CTTCTCACATGGACCGGTTTTCCCGGTAATCCGTATTTGTA (site CTTCTCGCTTA),0.0103
17,CTTCTCACATGGACCGGTTTTCCCGGTAATCCGTATTTGTA (site CTTCTCTCTTA),0
18,CTTCTCTCATGGACCGGTTTTCCCGGTAATCCGTATTTGCA (site CTTCTCTCTTA),0.866
19,CTTCTCTCATGGACCGGTTTTCCCGGTAATCCGTATTTGCA (site CTTCTCTCTTC),0
20,CTTCTCTCATGGACCGGTTTTCCCGGTAATCCGTATTTGCA (site CTTCTCTCTTG),2.46
21,CTTCTCTCATGGACCGGTTTTCCCGGTAATCCGTATTTGCA (site CTTCTCTCTTT),0.83
22,CTTCTCTCATGGACCGGTTTTCCCGGTAATCCGTATTTGCT (site CTTCTCTCTAG),2.48
23,CTTCTGCCATGGACCGGTTTTCCCGGTAATCCGTATTTGGG (site CTTCTGCCTCC),0.0114
24,CTTGACTCATGGACCGGTTTTCCCGGTAATCCGTATTTGTA (site CTTGACTCTTA),2.26
25,CTTGAGACATGGACCGGTTTTCCCGGTAATCCGTATTTGGT (site ATTGAGACTAC),0.141

row,Sequence,recombinant UMI read abundance (log10)
1,CTTGAGACATGGACCGGTTTTCCCGGTAATCCGTATTTGGT (site CTTGAGACTAC),1.03
2,CTTGAGACATGGACCGGTTTTCCCGGTAATCCGTATTTGGT (site GTTGAGACTAC),0.00699
3,CTTGAGACATGGACCGGTTTTCCCGGTAATCCGTATTTGGT (site TTTGAGACTAC),0.00972
4,CTTGCATCATGGACCGGTTTTCCCGGTAATCCGTATTTGAT (site CTTGCATCTAT),0.497
5,CTTGCGGCATGGACCGGTTTTCCCGGTAATCCGTATTTGCT (site ATTGCGGCTAG),0.00273
6,CTTGCGGCATGGACCGGTTTTCCCGGTAATCCGTATTTGCT (site CTTGCGGCTAG),0.82
7,CTTGCGGCATGGACCGGTTTTCCCGGTAATCCGTATTTGCT (site GTTGCGGCTAG),0.00591
8,CTTGCGGCATGGACCGGTTTTCCCGGTAATCCGTATTTGCT (site TTTGCGGCTAG),0
9,CTTGCGGCATGGACCGGTTTTCCCGGTAATCCGTATTTGGG (site CTTGCGGCTCC),0.0147
10,CTTGGTCCATGGACCGGTTTTCCCGGTAATCCGTATTTGCG (site CTTGGTCCTCG),0.00731
11,CTTGTGTCATGGACCGGTTTTCCCGGTAATCCGTATTTGGG (site CTTGTGTCTCC),0.208
12,GAAAACCCATGGACCGGTTTTCCCGGTAATCCGTATTTGAT (site GAAAACCCTAT),0
13,GAAAAGGCATGGACCGGTTTTCCCGGTAATCCGTATTTGTT (site GAAAAGGCTAA),2.58
14,GAAAATGCATGGACCGGTTTTCCCGGTAATCCGTATTTGAG (site GAAAATGCTCT),2.25
15,GAAACCACATGGACCGGTTTTCCCGGTAATCCGTATTTGGT (site GAAACCACTAC),0.48
16,GAAAGTCCATGGACCGGTTTTCCCGGTAATCCGTATTTGGA (site GAAAGTCCTTC),0.0128
17,GAACATACATGGACCGGTTTTCCCGGTAATCCGTATTTGGG (site GAACATACTCC),0.24
18,GAACGTACATGGACCGGTTTTCCCGGTAATCCGTATTTGCT (site GAACGTACTAG),2.26
19,GAAGATACATGGACCGGTTTTCCCGGTAATCCGTATTTGTT (site GAAGATACTAA),2.29
20,GAAGATACATGGACCGGTTTTCCCGGTAATCCGTATTTGTT (site GAAGATCCTAA),0.00569
21,GAAGATACATGGACCGGTTTTCCCGGTAATCCGTATTTGTT (site GAAGATGCTAA),0.602
22,GAAGATACATGGACCGGTTTTCCCGGTAATCCGTATTTGTT (site GAAGATTCTAA),0
23,GAAGATTCATGGACCGGTTTTCCCGGTAATCCGTATTTGTT (site AAAGATTCTAA),1.45
24,GAAGATTCATGGACCGGTTTTCCCGGTAATCCGTATTTGTT (site CAAGATTCTAA),1.81
25,GAAGATTCATGGACCGGTTTTCCCGGTAATCCGTATTTGTT (site GAAAATTCTAA),0.371

row,Sequence,recombinant UMI read abundance (log10)
1,GAAGATTCATGGACCGGTTTTCCCGGTAATCCGTATTTGTT (site GAACATTCTAA),0
2,GAAGATTCATGGACCGGTTTTCCCGGTAATCCGTATTTGTT (site GAAGAATCTAA),1.3
3,GAAGATTCATGGACCGGTTTTCCCGGTAATCCGTATTTGTT (site GAAGACTCTAA),1.24
4,GAAGATTCATGGACCGGTTTTCCCGGTAATCCGTATTTGTT (site GAAGAGTCTAA),0.0122
5,GAAGATTCATGGACCGGTTTTCCCGGTAATCCGTATTTGTT (site GAAGATACTAA),0.46
6,GAAGATTCATGGACCGGTTTTCCCGGTAATCCGTATTTGTT (site GAAGATCCTAA),1.92
7,GAAGATTCATGGACCGGTTTTCCCGGTAATCCGTATTTGTT (site GAAGATGCTAA),0.0075
8,GAAGATTCATGGACCGGTTTTCCCGGTAATCCGTATTTGTT (site GAAGATTCTAA),2.86
9,GAAGATTCATGGACCGGTTTTCCCGGTAATCCGTATTTGTT (site GAAGATTCTAC),0.242
10,GAAGATTCATGGACCGGTTTTCCCGGTAATCCGTATTTGTT (site GAAGATTCTAG),0.838
11,GAAGATTCATGGACCGGTTTTCCCGGTAATCCGTATTTGTT (site GAAGATTCTAT),1.5
12,GAAGATTCATGGACCGGTTTTCCCGGTAATCCGTATTTGTT (site GAAGATTCTCA),0.868
13,GAAGATTCATGGACCGGTTTTCCCGGTAATCCGTATTTGTT (site GAAGATTCTGA),0
14,GAAGATTCATGGACCGGTTTTCCCGGTAATCCGTATTTGTT (site GAAGATTCTTA),1.2
15,GAAGATTCATGGACCGGTTTTCCCGGTAATCCGTATTTGTT (site GAAGCTTCTAA),0.0109
16,GAAGATTCATGGACCGGTTTTCCCGGTAATCCGTATTTGTT (site GAAGGTTCTAA),0.0539
17,GAAGATTCATGGACCGGTTTTCCCGGTAATCCGTATTTGTT (site GAAGTTTCTAA),0
18,GAAGATTCATGGACCGGTTTTCCCGGTAATCCGTATTTGTT (site GAATATTCTAA),0
19,GAAGATTCATGGACCGGTTTTCCCGGTAATCCGTATTTGTT (site GACGATTCTAA),0
20,GAAGATTCATGGACCGGTTTTCCCGGTAATCCGTATTTGTT (site GAGGATTCTAA),0
21,GAAGATTCATGGACCGGTTTTCCCGGTAATCCGTATTTGTT (site GATGATTCTAA),0.296
22,GAAGATTCATGGACCGGTTTTCCCGGTAATCCGTATTTGTT (site GCAGATTCTAA),0.013
23,GAAGATTCATGGACCGGTTTTCCCGGTAATCCGTATTTGTT (site GGAGATTCTAA),0.379
24,GAAGATTCATGGACCGGTTTTCCCGGTAATCCGTATTTGTT (site GTAGATTCTAA),0.39
25,GAAGATTCATGGACCGGTTTTCCCGGTAATCCGTATTTGTT (site TAAGATTCTAA),2.36
